Key:
JAK 3 = target: T1, JAK 3 (Homo sapiens, UniProt P52333); experiment: Biochemical potency on JAK3, TR-FRET LANCE Ultra kinase assay (examples 1-99); conditions: ATP at Km (0.2 μM), read-out: JAK3 inhibitory activity (pIC50 class) (converted)
T1 sequence (P52333 1-1124): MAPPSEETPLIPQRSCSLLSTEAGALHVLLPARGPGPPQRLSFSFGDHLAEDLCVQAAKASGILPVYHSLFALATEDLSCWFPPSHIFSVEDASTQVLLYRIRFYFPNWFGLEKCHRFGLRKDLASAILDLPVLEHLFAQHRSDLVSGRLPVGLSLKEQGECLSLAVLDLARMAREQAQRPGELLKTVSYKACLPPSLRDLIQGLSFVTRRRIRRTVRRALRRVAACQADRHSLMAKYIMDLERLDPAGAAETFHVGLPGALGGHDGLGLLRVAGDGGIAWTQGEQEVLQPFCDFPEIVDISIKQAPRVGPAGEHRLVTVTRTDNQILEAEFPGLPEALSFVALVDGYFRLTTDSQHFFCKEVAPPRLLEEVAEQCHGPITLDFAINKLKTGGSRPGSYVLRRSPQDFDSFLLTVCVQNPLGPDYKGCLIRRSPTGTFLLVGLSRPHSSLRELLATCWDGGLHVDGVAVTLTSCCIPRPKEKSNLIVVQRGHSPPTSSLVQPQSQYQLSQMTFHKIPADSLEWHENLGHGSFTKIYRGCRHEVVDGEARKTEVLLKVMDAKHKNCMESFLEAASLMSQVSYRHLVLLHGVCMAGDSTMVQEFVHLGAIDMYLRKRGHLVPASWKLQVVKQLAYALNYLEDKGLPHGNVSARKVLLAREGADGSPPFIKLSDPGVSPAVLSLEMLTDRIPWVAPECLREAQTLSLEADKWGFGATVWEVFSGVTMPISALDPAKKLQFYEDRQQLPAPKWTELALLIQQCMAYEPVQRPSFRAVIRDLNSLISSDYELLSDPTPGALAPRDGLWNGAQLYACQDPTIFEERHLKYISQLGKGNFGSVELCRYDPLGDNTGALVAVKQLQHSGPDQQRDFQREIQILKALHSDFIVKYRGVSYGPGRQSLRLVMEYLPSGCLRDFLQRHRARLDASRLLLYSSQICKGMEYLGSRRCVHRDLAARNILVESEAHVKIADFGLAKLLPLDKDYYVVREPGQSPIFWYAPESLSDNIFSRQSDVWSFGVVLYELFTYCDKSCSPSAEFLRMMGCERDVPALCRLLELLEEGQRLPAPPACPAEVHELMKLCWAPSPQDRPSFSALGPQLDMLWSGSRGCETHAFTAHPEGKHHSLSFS
Protocol: (§1) The objective of this study was to assess the capability of compounds to inhibit all 4 JAK isoforms activity in a cell-free environment. Assay for JAK 1, JAK 2, JAK 3 and TYK2 were performed by Time-resolved fluorescence resonance energy transfer (TR-FRET) technology. It consists in the interaction of two labelled binding partners detected by the energy transfer from an excited donor to an acceptor dye and measurement of light emission by the acceptor dye. LANCE Ultra kinase assay was used. In presence of JAK 1, JAK 2, JAK 3 and TYK2 kinases and ATP (corresponding to Km), the ULight peptide substrate (LANCE Ulight-JAK-1 (Tyr1023) Peptide, Perkin Elmer, TRF0121) is phosphorylated. It is then captured by Eu-anti-phospho-substrate antibody (LANCE Eu-W1024 Anti-phosphotyrosine (PT66), Perkin Elmer, AD0069), which bring the Eu-chelate donor and ULight acceptor dyes into close proximity. Upon excitation at 320 nm, the Eu-chelate transfers its energy to the ULight dye, resulting in a fluorescent light emission at 665 nm.
(§2) Serial dilutions of compounds in pure DMSO are prepared from 10 mM DMSO stock solutions. Compounds were tested in 384-well plate for 11 consecutive 5-fold dilutions starting from 20 μM highest concentration (20 μM-[…]). 200 nL of compound were transferred from mother plate to test plate by using Mosquito (TTP labtech). Assay was performed in 384-well Perkin Elmer test plate in 20 μL assay volume (kinase reaction) and 40 μL total volume (stopping reagent and antibody detection reagents). In 10 μL of substrate solution (peptide+ATP) 30/50/20/10 nM of peptide and 20/0.7/0.2/12 μM of ATP were added for JAK 1, JAK 2, JAK 3 and TYK2 respectively. 10 μL of enzyme solution was added to kinase reaction at these concentrations: 0.15/0.083/0.025/0.144 ng/μL of JAK 1, JAK 2, JAK 3 and TYK2 respectively. After shaking and 1.5 h of incubation at r.t., 20 μL of Stop (10 μL EDTA) and Detection mixture (10 μL Europium-anti-phospho antibody, final: 0.5 nM) were added. Reading was performed after 1 h of incubation on a EnVision 2104 reader (Perkin Elmer).
(§3) Calculation of IC50 data, curves and QC analysis was performed by using Excel tool and GraphPadPrism software, v9. Briefly, individual concentration-effect curves are generated by plotting the logarithm of the tested concentration of tested compounds (X) vs. corresponding percent inhibition values (Y) using least squares (ordinary) fit. Best fit IC50 values are calculated using Log(inhibitor) vs. normalized response—Variable slope equation, where Y=100/(1+10^((Log IC50−X)*HillSlope)). QC criteria parameters (Z′, S:B, R2, HillSlope) were checked for every IC50 curve. Calculation of IC50 data, curves and QC analysis were made using Excel tools and GraphPadPrism software. QC criteria parameters: Z′≥0.5, Hill Slope range 0.5 to 5, S:B>2.

JAK 1 = JAK 1 (Homo sapiens, UniProt P23458); experiment: Biochemical potency on JAK1, TR-FRET LANCE Ultra kinase assay (examples 1-99); conditions: ATP at Km (20 μM), read-out: JAK1 inhibitory activity (pIC50 class) (converted)
JAK 1, sequence (P23458 whole entry): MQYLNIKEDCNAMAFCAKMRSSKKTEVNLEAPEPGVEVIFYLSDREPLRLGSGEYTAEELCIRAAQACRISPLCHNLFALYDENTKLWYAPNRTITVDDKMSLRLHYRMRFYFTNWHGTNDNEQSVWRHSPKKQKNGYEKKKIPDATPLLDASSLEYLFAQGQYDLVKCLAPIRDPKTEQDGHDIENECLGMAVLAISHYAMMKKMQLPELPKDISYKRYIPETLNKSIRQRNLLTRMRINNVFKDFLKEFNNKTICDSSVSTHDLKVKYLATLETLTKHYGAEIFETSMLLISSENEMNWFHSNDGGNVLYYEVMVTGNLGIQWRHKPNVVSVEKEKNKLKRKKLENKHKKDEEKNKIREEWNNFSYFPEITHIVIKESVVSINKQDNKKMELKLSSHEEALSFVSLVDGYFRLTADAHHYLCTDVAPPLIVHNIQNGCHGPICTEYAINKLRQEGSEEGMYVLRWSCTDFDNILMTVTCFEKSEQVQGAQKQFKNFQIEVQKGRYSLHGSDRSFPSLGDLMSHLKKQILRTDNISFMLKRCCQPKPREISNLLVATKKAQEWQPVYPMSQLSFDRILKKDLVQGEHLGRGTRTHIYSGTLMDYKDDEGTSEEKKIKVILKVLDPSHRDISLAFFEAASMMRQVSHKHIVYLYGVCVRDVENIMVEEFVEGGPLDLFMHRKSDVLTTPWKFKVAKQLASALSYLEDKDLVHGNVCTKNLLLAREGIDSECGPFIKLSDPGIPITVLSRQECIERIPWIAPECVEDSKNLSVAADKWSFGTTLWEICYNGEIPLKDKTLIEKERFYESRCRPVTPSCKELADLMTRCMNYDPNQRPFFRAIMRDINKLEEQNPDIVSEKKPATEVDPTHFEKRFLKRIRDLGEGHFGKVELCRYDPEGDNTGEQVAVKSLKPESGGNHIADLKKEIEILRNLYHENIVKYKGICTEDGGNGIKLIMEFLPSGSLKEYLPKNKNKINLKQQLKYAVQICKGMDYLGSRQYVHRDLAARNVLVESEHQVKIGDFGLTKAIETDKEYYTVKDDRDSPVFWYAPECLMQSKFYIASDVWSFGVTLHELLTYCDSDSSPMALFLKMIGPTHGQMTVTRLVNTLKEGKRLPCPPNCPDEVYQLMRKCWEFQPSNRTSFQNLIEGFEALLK
Protocol: as §1, §2, §3

TYK2 = TYK2 (Homo sapiens, UniProt P29597); experiment: Biochemical potency on Tyk2, TR-FRET LANCE Ultra kinase assay (examples 1-99); conditions: ATP at Km (12 μM), read-out: Tyk2 inhibitory activity (pIC50 class) (converted)
TYK2, sequence (P29597 whole entry): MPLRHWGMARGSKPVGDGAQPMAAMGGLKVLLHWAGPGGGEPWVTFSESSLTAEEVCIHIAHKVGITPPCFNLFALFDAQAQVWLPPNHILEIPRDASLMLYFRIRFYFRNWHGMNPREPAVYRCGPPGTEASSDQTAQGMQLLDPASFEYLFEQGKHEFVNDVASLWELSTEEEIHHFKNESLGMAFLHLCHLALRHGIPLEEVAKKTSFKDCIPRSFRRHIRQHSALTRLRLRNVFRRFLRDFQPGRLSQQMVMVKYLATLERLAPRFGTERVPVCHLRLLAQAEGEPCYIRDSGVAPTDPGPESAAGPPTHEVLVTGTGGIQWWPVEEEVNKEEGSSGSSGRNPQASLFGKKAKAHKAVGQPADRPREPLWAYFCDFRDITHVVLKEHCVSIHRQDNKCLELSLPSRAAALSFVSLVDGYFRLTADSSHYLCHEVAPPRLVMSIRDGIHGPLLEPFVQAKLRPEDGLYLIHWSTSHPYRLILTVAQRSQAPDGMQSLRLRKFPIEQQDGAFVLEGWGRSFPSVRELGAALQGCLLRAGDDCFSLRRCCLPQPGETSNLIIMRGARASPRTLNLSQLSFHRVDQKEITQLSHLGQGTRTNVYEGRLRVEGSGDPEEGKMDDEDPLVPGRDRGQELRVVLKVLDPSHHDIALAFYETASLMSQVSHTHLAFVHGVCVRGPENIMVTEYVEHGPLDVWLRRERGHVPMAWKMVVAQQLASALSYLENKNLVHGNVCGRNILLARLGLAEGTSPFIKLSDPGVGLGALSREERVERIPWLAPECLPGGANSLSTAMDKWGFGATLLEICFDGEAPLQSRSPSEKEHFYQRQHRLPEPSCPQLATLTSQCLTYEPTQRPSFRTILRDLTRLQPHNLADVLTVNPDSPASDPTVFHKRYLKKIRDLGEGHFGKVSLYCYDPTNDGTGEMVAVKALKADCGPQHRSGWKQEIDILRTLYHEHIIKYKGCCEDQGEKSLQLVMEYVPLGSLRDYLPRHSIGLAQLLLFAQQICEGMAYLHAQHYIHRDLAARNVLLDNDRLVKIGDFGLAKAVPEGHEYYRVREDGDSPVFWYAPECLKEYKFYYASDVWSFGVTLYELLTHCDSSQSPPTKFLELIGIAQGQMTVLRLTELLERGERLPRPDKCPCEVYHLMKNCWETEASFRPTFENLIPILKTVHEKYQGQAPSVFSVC
Protocol: as §1, §2, §3

JAK 2 = JAK 2 (Homo sapiens, UniProt O60674); experiment: Biochemical potency on JAK2, TR-FRET LANCE Ultra kinase assay (examples 1-99); conditions: ATP at Km (0.7 μM), read-out: JAK2 inhibitory activity (pIC50 class) (converted)
JAK 2, sequence (O60674 whole entry): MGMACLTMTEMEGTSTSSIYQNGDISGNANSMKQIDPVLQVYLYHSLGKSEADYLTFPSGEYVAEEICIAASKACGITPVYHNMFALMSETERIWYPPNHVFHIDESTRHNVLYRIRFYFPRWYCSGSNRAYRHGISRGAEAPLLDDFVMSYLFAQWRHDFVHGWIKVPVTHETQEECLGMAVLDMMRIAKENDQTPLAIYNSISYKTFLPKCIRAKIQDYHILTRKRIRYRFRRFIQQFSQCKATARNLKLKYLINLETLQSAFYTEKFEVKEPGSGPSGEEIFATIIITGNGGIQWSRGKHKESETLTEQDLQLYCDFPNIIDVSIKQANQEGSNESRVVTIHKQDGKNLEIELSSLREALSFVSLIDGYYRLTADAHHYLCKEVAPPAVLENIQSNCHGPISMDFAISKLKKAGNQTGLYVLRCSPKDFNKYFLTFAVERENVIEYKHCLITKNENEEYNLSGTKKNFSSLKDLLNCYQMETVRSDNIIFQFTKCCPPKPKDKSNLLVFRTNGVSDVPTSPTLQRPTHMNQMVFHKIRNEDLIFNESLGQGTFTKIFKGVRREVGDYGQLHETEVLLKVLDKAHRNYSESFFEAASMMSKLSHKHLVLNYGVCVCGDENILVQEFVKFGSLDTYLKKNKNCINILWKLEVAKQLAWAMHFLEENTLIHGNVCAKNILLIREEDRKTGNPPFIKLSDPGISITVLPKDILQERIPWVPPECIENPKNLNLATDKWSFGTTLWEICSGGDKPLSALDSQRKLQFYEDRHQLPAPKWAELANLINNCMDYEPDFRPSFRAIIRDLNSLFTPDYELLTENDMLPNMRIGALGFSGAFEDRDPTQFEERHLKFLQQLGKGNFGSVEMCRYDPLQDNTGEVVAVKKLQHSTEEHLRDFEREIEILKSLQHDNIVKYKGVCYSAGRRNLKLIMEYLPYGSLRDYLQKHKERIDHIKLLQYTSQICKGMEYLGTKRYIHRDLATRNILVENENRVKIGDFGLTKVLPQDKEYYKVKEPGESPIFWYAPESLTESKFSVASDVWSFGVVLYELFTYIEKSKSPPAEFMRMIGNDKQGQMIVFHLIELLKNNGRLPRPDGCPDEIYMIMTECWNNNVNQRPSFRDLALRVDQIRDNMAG
Protocol: as §1, §2, §3

SMILES | IC50 (JAK 3) [nM] | IC50 (JAK 1) [nM] | IC50 (TYK2) [nM] | IC50 (JAK 2) [nM]
COc1ccc(S(=O)(=O)NCC2CN(C)C2)cc1-n1nc(C)c2cnc(-c3cnn4cccnc34)cc21 [Example 17, 4-methoxy-3-(3-methyl-6-(pyrazolo[1,5-a]pyrimidin-3-yl)-1H-pyrazolo[4,3-c]pyridin-1-yl)-N-((1-methylazetidin-3-yl)methyl)benzenesulfonamide] | > 50.1 | 5.01 to 50.1 | > 50.1 | 5.01 to 50.1
COc1ccc(S(=O)(=O)NCCN2CCN(C)CC2)cc1-n1nc(C)c2cnc(-c3cnn4cccnc34)cc21 [Example 18, 4-methoxy-3-(3-methyl-6-(pyrazolo[1,5-a]pyrimidin-3-yl)-1H-pyrazolo[4,3-c]pyridin-1-yl)-N-(2-(4-methylpiperazin-1-yl)ethyl)benzenesulfonamide] | > 50.1 | 5.01 to 50.1 | > 50.1 | 5.01 to 50.1
COc1ccc(S(=O)(=O)NCCN2CCOCC2)cc1-n1nc(C)c2cnc(-c3cnn4cccnc34)cc21 [Example 19, 4-methoxy-3-(3-methyl-6-(pyrazolo[1,5-a]pyrimidin-3-yl)-1H-pyrazolo[4,3-c]pyridin-1-yl)-N-(2-morpholinoethyl)benzenesulfonamide] | > 50.1 | 5.01 to 50.1 | > 50.1 | 5.01 to 50.1
COCCS(=O)(=O)c1ccc(OC(F)F)c(-n2nc(C)c3cnc(-c4cnn5cccnc45)cc32)c1 [Example 20, 1-(2-(difluoromethoxy)-5-((2-methoxyethyl)sulfonyl)phenyl)-3-methyl-6-(pyrazolo[1,5-a]pyrimidin-3-yl)-1H-pyrazolo[4,3-c]pyridine] | ≤ 5.01 | 5.01 to 50.1 | 5.01 to 50.1 | ≤ 5.01
Cc1nn(-c2cc(S(=O)(=O)CCN3CCCCC3)ccc2OC(F)F)c2cc(-c3cnn4cccnc34)ncc12 [Example 23, 1-(2-(difluoromethoxy)-5-((2-(piperidin-1-yl)ethyl)sulfonyl)phenyl)-3-methyl-6-(pyrazolo[1,5-a]pyrimidin-3-yl)-1H-pyrazolo[4,3-c]pyridine] | 5.01 to 50.1 | 5.01 to 50.1 | > 50.1 | 5.01 to 50.1
COc1cccc(S(=O)(=O)c2ccc(OC(F)F)c(-n3nc(C)c4cnc(-c5cnn6cccnc56)cc43)c2)c1 [Example 25, 1-(2-(difluoromethoxy)-5-((3-methoxyphenyl)sulfonyl)phenyl)-3-methyl-6-(pyrazolo[1,5-a]pyrimidin-3-yl)-1H-pyrazolo[4,3-c]pyridine] | ≤ 5.01 | 5.01 to 50.1 | 5.01 to 50.1 | ≤ 5.01
Cc1nn(-c2cc(S(C)(=O)=O)ccc2OC(F)F)c2cc(-c3cnn4cccnc34)ncc12 [Example 26, 1-(2-(difluoromethoxy)-5-(methylsulfonyl)phenyl)-3-methyl-6-(pyrazolo[1,5-a]pyrimidin-3-yl)-1H-pyrazolo[4,3-c]pyridine] | ≤ 5.01 | ≤ 5.01 | 5.01 to 50.1 | ≤ 5.01
N#CCc1nn(-c2cc(Cl)ccc2OC(F)F)c2cc(-c3cnn4cccnc34)ncc12 [Example 28, 2-(1-(5-chloro-2-(difluoromethoxy)phenyl)-6-(pyrazolo[1,5-a]pyrimidin-3-yl)-1H-pyrazolo[4,3-c]pyridin-3-yl)acetonitrile] | ≤ 5.01 | ≤ 5.01 | 5.01 to 50.1 | ≤ 5.01

Next, values leading:

IC50 (JAK 3) [nM] | IC50 (JAK 1) [nM] | IC50 (TYK2) [nM] | IC50 (JAK 2) [nM] | SMILES
5.01 to 50.1 | 5.01 to 50.1 | > 50.1 | 5.01 to 50.1 | Cc1nn(-c2cc(S(=O)(=O)CCCN(C)C)ccc2OC(F)F)c2cc(-c3cnn4cccnc34)ncc12 [Example 21, 3-((4-(difluoromethoxy)-3-(3-methyl-6-(pyrazolo[1,5-a]pyrimidin-3-yl)-1H-pyrazolo[4,3-c]pyridin-1-yl)phenyl)sulfonyl)-N,N-dimethylpropan-1-amine]
≤ 5.01 | 5.01 to 50.1 | 5.01 to 50.1 | ≤ 5.01 | Cc1nn(-c2cc(S(=O)(=O)CCO)ccc2OC(F)F)c2cc(-c3cnn4cccnc34)ncc12 [Example 22, 2-((4-(difluoromethoxy)-3-(3-methyl-6-(pyrazolo[1,5-a]pyrimidin-3-yl)-1H-pyrazolo[4,3-c]pyridin-1-yl)phenyl)sulfonyl)ethan-1-ol]
≤ 5.01 | 5.01 to 50.1 | > 50.1 | ≤ 5.01 | CC(=O)N1CCC(S(=O)(=O)c2ccc(OC(F)F)c(-n3nc(C)c4cnc(-c5cnn6cccnc56)cc43)c2)C1 (centres unmarked) [Example 24, 1-(3-((4-(difluoromethoxy)-3-(3-methyl-6-(pyrazolo[1,5-a]pyrimidin-3-yl)-1H-pyrazolo[4,3-c]pyridin-1-yl)phenyl)sulfonyl)pyrrolidin-1-yl)ethan-1-one]
5.01 to 50.1 | 5.01 to 50.1 | > 50.1 | ≤ 5.01 | COc1cc(O)ccc1-n1nc(C)c2cnc(-c3cnn4cccnc34)cc21 [Example 27, 3-methoxy-4-(3-methyl-6-(pyrazolo[1,5-a]pyrimidin-3-yl)-1H-pyrazolo[4,3-c]pyridin-1-yl)phenol]
≤ 5.01 | 5.01 to 50.1 | 5.01 to 50.1 | ≤ 5.01 | OCc1nn(-c2cc(Cl)ccc2OC(F)F)c2cc(-c3cnn4cccnc34)ncc12 [Example 29, (1-(5-chloro-2-(difluoromethoxy)phenyl)-6-(pyrazolo[1,5-a]pyrimidin-3-yl)-1H-pyrazolo[4,3-c]pyridin-3-yl)methanol]
5.01 to 50.1 | 5.01 to 50.1 | > 50.1 | 5.01 to 50.1 | CN(C)Cc1nn(-c2cc(Cl)ccc2OC(F)F)c2cc(-c3cnn4cccnc34)ncc12 [Example 30, 1-(1-(5-chloro-2-(difluoromethoxy)phenyl)-6-(pyrazolo[1,5-a]pyrimidin-3-yl)-1H-pyrazolo[4,3-c]pyridin-3-yl)-N,N-dimethylmethanamine]
